The values that follow come from article PMC7435868, “Structure-Based Virtual Screening, Synthesis and Biological Evaluation of Potential FAK-FAT Domain Inhibitors for Treatment of Metastatic Cancer” (Molecules, 2020).

The test system of one data set is T47D. As to the kind of experiment: Cell viability assay (CellTiter Glo), T47D. The format is cell-based, human. The note with it: Homo sapiens, T47D, 72 h, 72 h incubation, mean of independent triplicate experiments, read-out: In vitro anti-proliferative activity IC50, T47D ER+ PR+/- HER-. How it is done: (§1) The antiproliferative activity of compound I as well as its newly synthesised analogues (5a–i) was evaluated in vitro against the three human breast cancer cell lines MDA-MB-231 (TNBC), T47D (ER^+, HER^−), and BT474 (ER^+, HER^+) as well as a human pancreatic cancer cell line MIAPaCa2. The seeding of the corresponding cell lines started one day before incubation, which lasted for 72 h with the different concentrations of the tested compounds. CellTiter Glo reagent (25 μL) was added to the cell plate. The luminescence was analysed after 10 min using a PerkinElmer Envision instrument. The test compounds were used at ten different triplicate concentrations in half log increments up to 100 μM.
In general terms: Cellular ATP, detected with luciferase, serves as a proxy for viable cell number.

Data set [1] deals with MDA-MB-231 cells. Description: Boyden chamber migration. The format is cell-based, human. The note with it: 18 h Boyden chamber. How it is done: Migration was assessed utilising 24-well, transmembrane permeable support plates (Corning Lifesciences, Corning, New York, NY, USA) with 6.5 mm microporous membrane (8 μm pore size) inserts, each coated with 10 μg/mL fibronectin in sterile PBS. Inserts were placed into wells containing RPMI + 5% FCS (± treatments), before cells in serum-free RPMI were seeded into the top portion of each insert at a density of 50,000 cells/mL. Cells were then incubated at 37 °C and 5% CO2 for 18 h. After this migratory period was completed, cells were fixed to the underside of the inserts in 3.7% PFA in PBS and stained with 0.5% crystal violet solution. Resulting inserts were then imaged using a standard light microscope.

A short description of data set [2]: Turbidimetric aqueous solubility. Format: physicochemical. The note with it: 37 °C, 2 h. The procedure: Both the estimated precipitation range (lower and upper bound) and a mid-range value were measured. Nicardipine and pyrene were used as control compounds.
The test compound was diluted in buffer to give a range of concentrations (1, 3, 10, 30, and 100 μM; final DMSO concentration 1%) and incubated at 37 °C for 2 hr.
The test compound (10 mM in DMSO) was serially diluted to give solutions of 0.1, 0.3, 1, and 3 mM in DMSO. Each test compound concentration was then further diluted 1 to 100 in buffer (typically 0.01 M phosphate buffered saline pH 7.4) so that the final DMSO concentration was 1%, and the final test compound concentrations were 1, 3, 10, 30, and 100 μM. The experiment was performed at 37 °C and each concentration was incubated in 7 replicate wells. The plates were incubated for 2 h at 37 °C before the absorbance was measured at 620 nm. Nicardipine and pyrene were included as control compounds. The solubility of nicardipine is pH dependent whereas the solubility of pyrene is pH independent.
An estimated precipitation range (lower and upper bound) and a calculated mid-range value were returned, along with any relevant comments, in the form of an Excel spreadsheet.

Another data set has as its target hERG potassium channel (Homo sapiens, UniProt Q12809). Description: hERG channel inhibition (IonWorks automated patch clamp, CHO-hERG cells). Background: The hERG channel carries a current that helps repolarise heart muscle cells.
Data set [3] concerns MDA-MB-231, T47D, BT474, and MIAPaCa2. Description: Cell viability assay, statements across the four cell lines. Format: cell-based, human. The following applies: three human breast and one pancreatic cancer cell line, up to 100 μM. How it is done: as §1
Data set [4] can be described thus: Microsomal metabolic stability. The procedure:
Half-life (t1/2) values were measured at five time points.
Intrinsic clearance values (CLint) with standard error and t1⁄2 values were measured.
The final incubation volume was 50 μL. A minus cofactor control incubation was included for each compound tested where 0.1 M phosphate buffer pH 7.4 was added instead of NADPH (minus NADPH). Two control compounds were included with each species. All incubations were performed singularly for each test compound.
The reactions were stopped by transferring 20 μL of incubate to 60 μL methanol at the appropriate time points. The termination plates were centrifuged at 2500 rpm for 20 min at 4 °C to precipitate the protein.
Following protein precipitation, the sample supernatants were combined in cassettes of up to 4 compounds, the internal standard was added, and samples were analysed using Cyprotex generic LC-MS/MS conditions.
From a plot of ln peak area ratio (compound peak area/internal standard peak area) against time, the gradient of the line was determined.

In a further data set the target is T1, FAK (Homo sapiens, UniProt Q05397).
T1 construct: in an in vitro model of TNBC, MDA-MB-231; endogenous in cells; host or cells: MDA-MB-231 (human triple negative breast cancer cells)
T1 sequence (Q05397 whole entry): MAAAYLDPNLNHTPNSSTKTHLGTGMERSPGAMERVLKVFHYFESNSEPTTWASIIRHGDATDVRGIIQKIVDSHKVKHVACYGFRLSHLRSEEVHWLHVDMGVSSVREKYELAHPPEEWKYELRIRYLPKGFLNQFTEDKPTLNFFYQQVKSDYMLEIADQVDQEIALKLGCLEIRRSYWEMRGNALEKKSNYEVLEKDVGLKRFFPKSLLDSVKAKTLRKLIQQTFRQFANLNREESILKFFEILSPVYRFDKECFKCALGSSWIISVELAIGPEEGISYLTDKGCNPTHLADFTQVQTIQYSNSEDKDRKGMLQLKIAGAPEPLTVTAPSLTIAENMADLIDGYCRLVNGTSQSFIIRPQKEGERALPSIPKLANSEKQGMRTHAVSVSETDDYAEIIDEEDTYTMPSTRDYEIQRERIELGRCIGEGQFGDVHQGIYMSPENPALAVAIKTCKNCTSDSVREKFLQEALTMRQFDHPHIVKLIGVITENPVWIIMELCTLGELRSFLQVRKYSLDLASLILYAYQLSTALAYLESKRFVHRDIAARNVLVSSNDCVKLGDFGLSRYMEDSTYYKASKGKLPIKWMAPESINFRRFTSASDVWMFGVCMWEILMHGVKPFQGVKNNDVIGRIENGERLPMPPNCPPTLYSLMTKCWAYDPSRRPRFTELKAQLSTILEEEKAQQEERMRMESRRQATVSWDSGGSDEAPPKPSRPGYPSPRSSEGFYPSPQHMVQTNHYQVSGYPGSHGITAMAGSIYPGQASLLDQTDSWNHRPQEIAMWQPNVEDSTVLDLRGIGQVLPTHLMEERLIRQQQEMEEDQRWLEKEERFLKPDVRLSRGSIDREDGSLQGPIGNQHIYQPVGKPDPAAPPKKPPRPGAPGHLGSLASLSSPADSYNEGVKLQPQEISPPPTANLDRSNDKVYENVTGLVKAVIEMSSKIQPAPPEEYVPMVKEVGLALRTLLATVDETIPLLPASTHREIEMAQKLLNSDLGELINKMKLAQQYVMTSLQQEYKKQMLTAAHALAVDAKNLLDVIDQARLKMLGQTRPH
Description: Western blotting of FAK activity. The format is cell-based. The note with it: MDA-MB-231, Western blot. The source says:
This was expected, given that this compound limits protein–protein scaffolding interaction rather than kinase activity and subsequent phosphorylation of key FAK residues.
Background: In western blotting, separated proteins are transferred to a membrane and probed.

Data set [5] deals with MDA-MB-231 cells. Description: Cell proliferation assay (7-day cell counting). The format is cell-based, human. The note with it: 7-day proliferation, 1 μM, vs vehicle-only control. How it is done:
To assess proliferation, cells were seeded at 4.2 × 10^5 cells/mL in 24-well plates. Following 24 h, the media were replaced with fresh RPMI + 5% FCS, in the presence or absence of treatments and a selection of wells counted (day 0 counts). Cells were subsequently counted each day up to 7 days to assess proliferation. Briefly, this entailed the removal of old media and the addition of trypsin/EDTA in order to lift cells before passing gently through a 25 G needle to achieve a single-cell suspension. The resulting solution was then added to isoton in a counting cup and the cell number was determined using a Coulter Multisizer III (Beckman Coulter Life Sciences, Indianopolis, IN, USA) Each well was counted twice with all conditions performed in triplicate.

For data set [6], the system named is MDA-MB-231 cells. Description: Immunofluorescence of active FAK (FAK Y861) and vinculin. The format is cell-based, human. The procedure: The resulting fixed cells were subsequently permeabilised with 0.2% Triton-X100 in PBS for 8 min. This was proceeded by a 40 min block in 10% normal goat serum (in 1% BSA in PBS) prior to 30 min primary antibody incubation. Both FAK^Y861 and vinculin antibodies were diluted to working concentration (1:100 and 1:200, respectively) in 1% BSA in PBS. […] Slides were viewed using a 63X oil immersion lens on a Leica DM IRE2 microscope (Leica Microsystems, Wetzlar, Germany).

In a further data set the test system is BT474. Description: Cell viability assay (CellTiter Glo), BT474. The format is cell-based, human. The following applies: Homo sapiens, BT-474, 72 h, 72 h incubation, mean of independent triplicate experiments, read-out: In vitro anti-proliferative activity IC50, BT474 ER+ PR+/- HER+. How it is done:
as §1

Where [7] appears, read: buffered aqueous solution (PBS pH 7.4, 1% DMSO).
[8] abbreviates: human, pooled liver microsomes, pH 7.4.
Setting [9] is: MDA-MB-231, 1 h serum stimulated.

Sequence of hERG potassium channel (Q12809 whole entry): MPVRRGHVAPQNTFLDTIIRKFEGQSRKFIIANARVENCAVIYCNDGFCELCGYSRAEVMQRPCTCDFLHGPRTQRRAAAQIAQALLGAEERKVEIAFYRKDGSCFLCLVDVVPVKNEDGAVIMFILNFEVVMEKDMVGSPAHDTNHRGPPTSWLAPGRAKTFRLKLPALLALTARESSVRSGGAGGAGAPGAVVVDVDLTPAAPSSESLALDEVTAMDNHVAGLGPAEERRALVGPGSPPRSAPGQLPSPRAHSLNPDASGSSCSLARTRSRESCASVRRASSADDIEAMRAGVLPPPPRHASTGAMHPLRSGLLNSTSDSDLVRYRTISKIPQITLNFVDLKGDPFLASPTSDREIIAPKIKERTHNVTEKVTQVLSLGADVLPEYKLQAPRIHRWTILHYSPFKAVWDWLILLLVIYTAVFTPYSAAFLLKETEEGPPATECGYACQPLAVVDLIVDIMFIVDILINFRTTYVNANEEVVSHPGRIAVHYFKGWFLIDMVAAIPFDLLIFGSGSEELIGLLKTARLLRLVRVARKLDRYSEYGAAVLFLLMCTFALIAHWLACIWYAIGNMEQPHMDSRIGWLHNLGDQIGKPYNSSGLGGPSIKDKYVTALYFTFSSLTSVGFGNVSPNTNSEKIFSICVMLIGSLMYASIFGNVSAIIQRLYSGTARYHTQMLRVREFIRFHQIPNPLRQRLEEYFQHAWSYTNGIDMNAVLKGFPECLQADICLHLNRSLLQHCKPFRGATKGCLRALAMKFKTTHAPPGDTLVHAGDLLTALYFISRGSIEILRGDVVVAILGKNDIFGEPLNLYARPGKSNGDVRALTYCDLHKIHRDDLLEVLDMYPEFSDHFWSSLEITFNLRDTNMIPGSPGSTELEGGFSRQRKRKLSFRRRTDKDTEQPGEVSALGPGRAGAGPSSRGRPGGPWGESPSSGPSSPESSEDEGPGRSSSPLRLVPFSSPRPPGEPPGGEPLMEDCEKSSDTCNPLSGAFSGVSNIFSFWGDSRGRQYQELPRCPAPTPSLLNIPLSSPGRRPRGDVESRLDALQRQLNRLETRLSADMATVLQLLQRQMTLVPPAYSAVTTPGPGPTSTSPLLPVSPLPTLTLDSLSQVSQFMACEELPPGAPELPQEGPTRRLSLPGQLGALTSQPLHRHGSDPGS
Description for hERG potassium channel: Mammalian cells expressing the hERG potassium channel were dispensed into 384-well planar arrays and hERG tail-currents measured by whole-cell voltage-clamping. A range of concentrations of the test compound was then added to the cells and a second recording of the hERG current was made. […] IC50 is delivered, standard error (SE IC50), and n (number of data points used to calculate IC50) for the test compound. The experiments were performed on an Ion Works TM automated patch clamp instrument (Molecular Devices LLC (San Jose, California, United States)), which simultaneously performs electrophysiology measurements for 48 single cells in a specialised 384-well plate (PatchPlateTM(manufacturer, city, state if USA or Canada, country)). All cell suspensions, buffers, and test compound solutions were at room temperature during the experiment.
The cells used were Chinese hamster ovary (CHO) cells stably transfected with hERG (cell-line obtained from Cytomyx, UK). A single-cell suspension was prepared in extracellular solution (Dulbecco’s phosphate buffered saline with calcium and magnesium pH 7.2) and aliquots added automatically to each well of a Patch Plate TM. The cells were then positioned over a small hole at the bottom of each well by applying a vacuum beneath the plate to form an electrical seal. The vacuum was applied through a single compartment common to all wells which was filled with intracellular solution (buffered to pH 7.2 with HEPES). The resistance of each seal was measured via a common ground-electrode in the intracellular compartment and individual electrodes placed into each of the upper wells.
Electrical access to the cell was then achieved by circulating a perforating agent, amphotericin B, underneath the PatchPlateTM. The pre-compound hERG current was then measured. An electrode was positioned in the extracellular compartment and a holding potential of −80 mV applied for 15 s. The hERG channels were then activated by applying a depolarising step to +40 mV for 5 s and then clamped at −50 mV for 4 s to elicit the hERG tail current, before returning to −80 mV for 0.3 s.
The Ion Works TM instrument automatically adds test compound dilutions to the upper wells of the PatchPlateTM. The test compound was left in contact with the cells for 300 s before recording currents using the same voltage-step protocol as in the pre-compound scan.
Each concentration was tested in 4 replicate wells on the PatchPlateTM (maximum of 24 data points). Filters were applied to ensure only acceptable cells were used to assess hERG inhibition.
For each replicate, the hERG response was calculated using the following equation:% hERG response = [Post-compound current (nA)/Pre-compound current (nA)] × 100(5)

Consider `CC(C)(C)c1ccc(C(CN)c2ccc(Cl)cc2)cc1` (stereo not drawn) [Compound I], for which, in the data set on T47D, the IC50 worked out at 6.71 µM. Moreover, the Serum-stimulated migration entry in the data set with MDA-MB-231 cells [1] was “significant reduction in serum-stimulated migration”. Also, in data set [2] (setting [7]), the “Estimated Precipitation Range, Calculated Mid-Range” value was over 100 µM; the “Estimated Precipitation Range, Lower Bound” value is listed as 100 µM; the “Estimated Precipitation Range, Upper Bound” value was over 100 µM. In data set [2] (turbidimetric), the “Aqueous solubility (in words)” value is listed as “high aqueous solubility”. This compound also gave an IC50 against hERG potassium channel of 5.47 µM. Moreover, in data set [3], the “Anti-proliferative activity (in words) across the four cell lines” value is given as “low micromolar antiproliferative activity”. In addition, in data set [4] (human liver microsomes, 0 min), the “Compound Remaining (% of 0 min), 0 min” value is 100 % of 0 min. The “Compound Remaining (% of 0 min), 5 min” value in [4] (human liver microsomes, 5 min) was 89.4 % of 0 min. Moreover, the “Compound Remaining (% of 0 min), 15 min” value in data set [4] (human liver microsomes, 15 min) was 92.3 % of 0 min. Further, the “Compound Remaining (% of 0 min), 30 min” value in data set [4] (human liver microsomes, 30 min) is given as 77.9 % of 0 min. Further, the “Compound Remaining (% of 0 min), 45 min” value in data set [4] (human liver microsomes, 45 min) was 81.3 % of 0 min. In [4] (human liver microsomes, minus NADPH control, 45 min), the “Compound Remaining (% of 0 min), Control” value is 95.7 % of 0 min. Also, in [4] (setting [8]), the half-life at 3 μM came to 2.53 h and the microsomal CLint at 3 μM was 9.1 µL/min/mg. On FAK, the “Activity of FAK Y397 / FAK Y925 (phosphorylation)” value is “no significant changes” and the “Stability of total FAK protein” value is “no changes in the stability of total FAK protein”. The “Proliferation rates of MDA-MB-231 cells” value with MDA-MB-231 cells [5] is recorded as “significantly reduce proliferation rates”. Moreover, in the data set with MDA-MB-231 cells [6] (setting [9]), the “Number of focal adhesions/cell” value is reported as “significant increase in focal adhesions” and the “Size of focal adhesions” value was “no effect on the size of focal adhesions”. Further, the “Localisation of FAK to the cell periphery” value in the data set on MDA-MB-231 cells [6] (MDA-MB-231, 1 h serum stimulated, vs vehicle-only controls) is given as “increased localisation of FAK to the cell periphery”. In addition, the “Active FAK throughout the cytoplasm” value in the data set on MDA-MB-231 cells [6] (MDA-MB-231, versus PF271 treated cells) was “significantly more active FAK displayed throughout the cytoplasm”. The IC50 in the data set on BT474 came to 2.67 µM.

The term half-life denotes the time needed for the level to fall by half in the phase considered. Broadly, the microsomal CLint is the rate of metabolic loss divided by the concentration.
